Data on 20 compounds can be found in patent US20240124417A1, “COMPOUNDS USEFUL AS IMMUNOMODULATORS” (Bristol-Myers Squibb Company, priority 2019, published 2024).

The structures appear in SMILES notation.

The experiment has as its target T1, PD-1/PD-L1 (Homo sapiens, UniProt Q9NZQ7).
T1 construct: TVMV protease site linker (C); made in house; host or cells: HEK293T cells
Kind of experiment: PD-1/PD-L1 Homogenous Time-Resolved Fluorescence (HTRF) binding assay. The conditions noted are these: PD-L1-His 10 nM, PD-1-Ig 20 nM. Put shortly: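 Time-resolved FRET read-out using Eu-cryptate anti-Ig (1 nM final) and APC anti-His (20 nM final). Tagged extracellular domains were used in BSA/Tween-20-supplemented dPBS, with compound pre-incubated 15 min with PD-L1-His (10 nM) before PD-1-Ig (20 nM) was added for 15 min. Other human pairs: PD-L2-His 5 nM with PD-1-Ig 20 nM; PD-L1-Ig 10 nM with CD80-His 100 nM.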

T1 sequence (Q9NZQ7 18-239): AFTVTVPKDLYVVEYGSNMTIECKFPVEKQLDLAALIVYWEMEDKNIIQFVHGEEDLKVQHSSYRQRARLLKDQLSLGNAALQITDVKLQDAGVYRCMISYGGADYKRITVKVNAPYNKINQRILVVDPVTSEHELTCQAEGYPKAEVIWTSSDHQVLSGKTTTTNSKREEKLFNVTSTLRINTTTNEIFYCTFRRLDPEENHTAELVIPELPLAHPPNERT

A word on the IC50: it is the concentration at which inhibition is half-maximal. High values mean weaker potency in that assay, low ones greater potency in that assay. Consider `CC(=O)NC1CCN(CCCOc2cccc(-c3cccc(COc4cc(OCc5cncc(C#N)c5)c(CN5CCC(c6nnn[nH]6)C5)cc4Cl)c3C)c2Cl)CC1` (centres unmarked) [Example 1058, N-(1-(3-((3′-((4-((3-(1H-Tetrazol-5-yl)pyrrolidin-1-yl)methyl)-2-chloro-5-((5-cyano-pyridin-3-yl)methoxy)phenoxy)methyl)-2-chloro-2′-methyl-[1,1′-biphenyl]-3-yl)oxy)-propyl)piperidin-4-yl)acetamide], for which the concentration for half-maximal inhibition (IC50) turned out to be 1.9 nM.

With `CC(=O)NC1CCN(CCCOc2cccc(-c3cccc(COc4cc(OCc5cncc(C#N)c5)c(CN5CCCCC5c5cn[nH]c5)cc4Cl)c3C)c2Cl)CC1` (centres unmarked) [Example 1059, N-(1-(3-((3′-((4-((2-(1H-Pyrazol-4-yl)piperidin-1-yl)methyl)-2-chloro-5-((5-cyano-pyridin-3-yl)methoxy)phenoxy)methyl)-2-chloro-2′-methyl-[1,1′-biphenyl]-3-yl)oxy)-propyl)piperidin-4-yl)acetamide], the half-maximal inhibitory concentration (IC50) is 3.6 nM.

`Cc1c(COc2cc(OCc3cncc(C#N)c3)c(CNCc3cc[nH]n3)cc2Cl)cccc1-c1cccc(OCCCN2CC[C@@H](O)C2)c1C` [Example 2001, (R)-5-((2-((((1H-pyrazol-3-yl)methyl)amino)methyl)-4-chloro-5-((3′-(3-(3-hydroxypyrrolidin-1-yl)propoxy)-2,2′-dimethyl-[1,1′-biphenyl]-3-yl)methoxy)phenoxy)methyl)nicotinonitrile] displayed a half-inhibitory concentration (IC50) of 0.2 nM.

`Cc1c(COc2cc(OCc3cncc(C#N)c3)c(CNCc3ncn[nH]3)cc2Cl)cccc1-c1cccc(OCCCN2CC[C@@H](O)C2)c1C` [Example 2002, (R)-5-((2-((((1H-1,2,4-triazol-5-yl)methyl)amino)methyl)-4-chloro-5-((3′-(3-(3-hydroxypyrrolidin-1-yl)propoxy)-2,2′-dimethyl-[1,1′-biphenyl]-3-yl)methoxy)phenoxy)methyl)nicotinonitrile] returned a 50% inhibitory concentration (IC50) of 9.3 nM. Compared with the last compound, the IC50 is about 46-fold higher.

Consider `Cc1c(COc2cc(OCc3cncc(C#N)c3)c(CNCc3c[nH]cn3)cc2Cl)cccc1-c1cccc(OCCCN2CC[C@@H](O)C2)c1C` [Example 2003, (R)-5-((2-((((1H-imidazol-4-yl)methyl)amino)methyl)-4-chloro-5-((3′-(3-(3-hydroxypyrrolidin-1-yl)propoxy)-2,2′-dimethyl-[1,1′-biphenyl]-3-yl)methoxy)phenoxy)methyl)nicotinonitrile], for which the IC50 is 7.2 nM. The IC50 values of the last two compounds are within 1.5-fold of each other.

Take `Cc1c(COc2cc(OCc3cncc(C#N)c3)c(CNCc3ncc[nH]3)cc2Cl)cccc1-c1cccc(OCCCN2CC[C@@H](O)C2)c1C` [Example 2004, (R)-5-((2-((((1H-imidazol-2-yl)methyl)amino)methyl)-4-chloro-5-((3′-(3-(3-hydroxypyrrolidin-1-yl)propoxy)-2,2′-dimethyl-[1,1′-biphenyl]-3-yl)methoxy)phenoxy)methyl)nicotinonitrile]: the IC50 was determined as 4.1 nM.

Compound `Cc1c(COc2cc(OCc3cncc(C#N)c3)c(CN(C)Cc3cc[nH]n3)cc2Cl)cccc1-c1cccc(OCCCN2CC[C@@H](O)C2)c1C` [Example 2005, (R)-5-((2-((((1H-pyrazol-3-yl)methyl)(methyl)amino)methyl)-4-chloro-5-((3′-(3-(3-hydroxypyrrolidin-1-yl)propoxy)-2,2′-dimethyl-[1,1′-biphenyl]-3-yl)methoxy)phenoxy)methyl)nicotinonitrile] registered an IC50 of 2.5 nM.

As for `Cc1c(COc2cc(OCc3cncc(C#N)c3)c(CN(C)Cc3ncn[nH]3)cc2Cl)cccc1-c1cccc(OCCCN2CC[C@@H](O)C2)c1C` [Example 2006, (R)-5-((2-((((1H-1,2,4-triazol-5-yl)methyl)(methyl)amino)methyl)-4-chloro-5-((3′-(3-(3-hydroxypyrrolidin-1-yl)propoxy)-2,2′-dimethyl-[1,1′-biphenyl]-3-yl)methoxy)phenoxy)methyl)nicotinonitrile], the IC50 is 0.2 nM.

In the case of `Cc1c(COc2cc(OCc3cncc(C#N)c3)c(CN(C)Cc3c[nH]cn3)cc2Cl)cccc1-c1cccc(OCCCN2CC[C@@H](O)C2)c1C` [Example 2007, (R)-5-((2-((((1H-imidazol-4-yl)methyl)(methyl)amino)methyl)-4-chloro-5-((3′-(3-(3-hydroxypyrrolidin-1-yl)propoxy)-2,2′-dimethyl-[1,1′-biphenyl]-3-yl)methoxy)phenoxy)methyl)nicotinonitrile], the IC50 was determined as 0.6 nM.

For the compound `Cc1c(COc2cc(OCc3cncc(C#N)c3)c(CN(C)Cc3ncc[nH]3)cc2Cl)cccc1-c1cccc(OCCCN2CC[C@@H](O)C2)c1C` [Example 2008, (R)-5-((2-((((1H-imidazol-2-yl)methyl)(methyl)amino)methyl)-4-chloro-5-((3′-(3-(3-hydroxypyrrolidin-1-yl)propoxy)-2,2′-dimethyl-[1,1′-biphenyl]-3-yl)methoxy)phenoxy)methyl)nicotinonitrile], the half-inhibitory concentration (IC50) turned out to be 0.5 nM.

For `Cc1c(COc2cc(OCc3cncc(C#N)c3)c(CNCc3ncn[nH]3)cc2Cl)cccc1-c1cccc(OCCCN2CCC(O)(CO)CC2)c1Cl` [Example 2009, 5-((2-((((1H-1,2,4-triazol-5-yl)methyl)amino)methyl)-4-chloro-5-((2′-chloro-3′-(3-(4-hydroxy-4-(hydroxymethyl)piperidin-1-yl)propoxy)-2-methyl-[1,1′-biphenyl]-3-yl)methoxy)phenoxy)methyl)nicotinonitrile], the IC50 amounted to 2.1 nM.

Compound `Cc1c(COc2cc(OCc3cncc(C#N)c3)c(CNCc3c[nH]cn3)cc2Cl)cccc1-c1cccc(OCCCN2CCC(O)(CO)CC2)c1Cl` [Example 2010, 5-((2-((((1H-imidazol-4-yl)methyl)amino)methyl)-4-chloro-5-((2′-chloro-3′-(3-(4-hydroxy-4-(hydroxymethyl)piperidin-1-yl)propoxy)-2-methyl-[1,1′-biphenyl]-3-yl)methoxy)phenoxy)methyl)nicotinonitrile] displayed a half-inhibitory concentration (IC50) of 2.1 nM.

`Cc1c(COc2cc(OCc3cncc(C#N)c3)c(CNCc3ncc[nH]3)cc2Cl)cccc1-c1cccc(OCCCN2CCC(O)(CO)CC2)c1Cl` [Example 2011, 5-((2-((((1H-imidazol-2-yl)methyl)amino)methyl)-4-chloro-5-((2′-chloro-3′-(3-(4-hydroxy-4-(hydroxymethyl)piperidin-1-yl)propoxy)-2-methyl-[1,1′-biphenyl]-3-yl)methoxy)phenoxy)methyl)nicotinonitrile] registered an IC50 of 2.8 nM.

On to `Cc1c(COc2cc(OCc3cncc(C#N)c3)c(CNCc3cc[nH]n3)cc2Cl)cccc1-c1cccc(OCCCN2CCC(O)(CO)CC2)c1Cl` [Example 2012, 5-((2-((((1H-pyrazol-3-yl)methyl)amino)methyl)-4-chloro-5-((2′-chloro-3′-(3-(4-hydroxy-4-(hydroxymethyl)piperidin-1-yl)propoxy)-2-methyl-[1,1′-biphenyl]-3-yl)methoxy)phenoxy)methyl)nicotinonitrile], for which the half-inhibitory concentration (IC50) was found to be 2.6 nM.

Turning to `Cc1c(COc2cc(OCc3cncc(C#N)c3)c(CN(C)Cc3ncn[nH]3)cc2Cl)cccc1-c1cccc(OCCCN2CCC(O)(CO)CC2)c1Cl` [Example 2013, 5-((2-((((1H-1,2,4-triazol-5-yl)methyl)(methyl)amino)methyl)-4-chloro-5-((2′-chloro-3′-(3-(4-hydroxy-4-(hydroxymethyl)piperidin-1-yl)propoxy)-2-methyl-[1,1′-biphenyl]-3-yl)methoxy)phenoxy)methyl)nicotinonitrile], the concentration for half-maximal inhibition (IC50) came out at 1.1 nM. Against the preceding compound, the IC50 is about 2.4-fold lower.

`Cc1c(COc2cc(OCc3cncc(C#N)c3)c(CN(C)Cc3c[nH]cn3)cc2Cl)cccc1-c1cccc(OCCCN2CCC(O)(CO)CC2)c1Cl` [Example 2014, 5-((2-((((1H-imidazol-4-yl)methyl)(methyl)amino)methyl)-4-chloro-5-((2′-chloro-3′-(3-(4-hydroxy-4-(hydroxymethyl)piperidin-1-yl)propoxy)-2-methyl-[1,1′-biphenyl]-3-yl)methoxy)phenoxy)methyl)nicotinonitrile] showed an IC50 of 0.5 nM. This IC50 lies about 2.2-fold lower than the previous one.

The compound `Cc1c(COc2cc(OCc3cncc(C#N)c3)c(CN(C)Cc3ncc[nH]3)cc2Cl)cccc1-c1cccc(OCCCN2CCC(O)(CO)CC2)c1Cl` [Example 2015, 5-((2-((((1H-imidazol-2-yl)methyl)(methyl)amino)methyl)-4-chloro-5-((2′-chloro-3′-(3-(4-hydroxy-4-(hydroxymethyl)piperidin-1-yl)propoxy)-2-methyl-[1,1′-biphenyl]-3-yl)methoxy)phenoxy)methyl)nicotinonitrile] had an IC50 of 3.1 nM.

The compound `Cc1c(COc2cc(OCc3cncc(C#N)c3)c(CN(C)Cc3cc[nH]n3)cc2Cl)cccc1-c1cccc(OCCCN2CCC(O)(CO)CC2)c1Cl` [Example 2016, 5-((2-((((1H-pyrazol-3-yl)methyl)(methyl)amino)methyl)-4-chloro-5-((2′-chloro-3′-(3-(4-hydroxy-4-(hydroxymethyl)piperidin-1-yl)propoxy)-2-methyl-[1,1′-biphenyl]-3-yl)methoxy)phenoxy)methyl)nicotinonitrile] returned an IC50 of 0.2 nM. Compared with the last compound, the IC50 is about 16-fold lower.

On to `Cc1c(COc2cc(OCc3cncc(C#N)c3)c(CNCc3ccccn3)cc2Cl)cccc1-c1cccc(OCCCN2CC[C@@H](O)C2)c1C` [Example 2017, (R)-5-((4-chloro-5-((3′-(3-(3-hydroxypyrrolidin-1-yl)propoxy)-2,2′-dimethyl-[1,1′-biphenyl]-3-yl)methoxy)-2-(((pyridin-2-ylmethyl)amino)methyl)phenoxy)methyl)nicotinonitrile], for which the IC50 came to 2.1 nM.

Regarding `Cc1c(COc2cc(OCc3cncc(C#N)c3)c(CNCc3cccnc3)cc2Cl)cccc1-c1cccc(OCCCN2CC[C@@H](O)C2)c1C` [Example 2018, (R)-5-((4-chloro-5-((3′-(3-(3-hydroxypyrrolidin-1-yl)propoxy)-2,2′-dimethyl-[1,1′-biphenyl]-3-yl)methoxy)-2-(((pyridin-3-ylmethyl)amino)methyl)phenoxy)methyl)nicotinonitrile], the IC50 worked out at 0.8 nM.
